Data set [1] relates to tooth pulps of the central incisors of rabbits. As to the kind of experiment: In vivo electrically stimulated tooth pulp pain model (rabbit tooth pulp assay). Here is the method:
To confirm the results of the in vitro experiments in vivo, an electrically stimulated tooth pulp pain model was used. The tooth pulps of the central incisors of rabbits were exposed using a high speed burr and dental drill.
Electrodes were inserted into the pulp chambers and the voltage required to elicit a lick/chew response was measured. The percentage analgesia was calculated from the following equation:
MPE=((TV-CV)/(10 V-CV))×100
wherein TV is the voltage after treatment; CV is the control voltage, and 10 V are the maximum volts applied.
The percent analgesia was recorded 0, 5, 10, 15, 30, 60, 120 and 180 minutes after injection.

For data set [2], the system named is desheathed ferret vagus nerves (C fibers). As to the kind of experiment: In vitro recording of electrically stimulated compound action potentials from desheathed ferret vagus nerves (depression of action potential). Format: cell-based. As to conditions: for pIC50: read-out: ED50 (the source's name); for shift in the dose/response curve: lithium Lockes versus sodium Lockes, FIGS. 1 to 4; for in vitro ED50 reduction relative to control values: lithium-containing versus sodium Lockes vehicle. Here is the method: To test if replacement of lithium ions for sodium ions reduced the required local anesthetic dose, an in vitro experiment was performed, wherein the electrically stimulated compound action potentials were recorded from desheathed ferret vagus nerves, which are an enriched source of C fibers.
The ferret vagus nerves were removed bilaterally and were desheathed under a Zeiss dissecting microscope with a magnification of 2.5X. A single desheathed nerve was then placed in a chamber interlaced with electrodes for stimulating and recording action potentials. The central section of the nerve passes through the central well containing either buffer or drug in buffer.
The stimulation voltage was adjusted to provide maximal action potential. The stimulus duration was 0.5 milliseconds. Stimulation and recording parameters were programmed, and stimuli were presented at 2 second intervals. Five successive action potentials were averaged and stored as an estimate of action potential activity each minute. The intervening […] action potential were discarded.
Control nerves were bathed in a 100% sodium Locke's solution, synthesized in the manner set forth in Synthesis Example 1 above. Experimental nerves were bathed in lithium Locke's solution, comprising 35 mol Eq. % lithium, 65 mol Eq. % sodium Locke's solution, synthesized in the manner set forth in Synthesis Example 2 above.
The electrical stimuli were applied to one end of the nerve, while on the other end, the resulting action potential propagation was measured using an oscilloscope and the recording computer. Varying doses of mepivacaine were administered to the nerves so that dose/response curves could be constructed under both ionic conditions.
Following a period of equilibration in a buffer where control recordings are made, the well was emptied and a molar concentration of a test anesthetic was added. Various molar concentrations of mepivacaine, an amide type local anesthetic (Sterling-Winthrop Research Institute, Rensselear, N.Y.), and procaine, an ester type local anesthetic (Sigma Chemical Co., St. Louis, Mo.) were tested in both sodium and lithium Locke's buffer vehicles, as described above.
Compound action potentials having two distinct peaks, labeled as A and C peaks, are observed and were recorded at 2 second intervals. Five consecutive action potentials were recorded for each one minute time period over 30 minutes. At 30 minutes, the anesthetic was removed and the chamber was perfused with buffer. Recording was continued during this 30 minute period. The averaged data, collected every 2 minutes, was then analyzed to determine the slope of the action potential, the height of the action potential, the area under the curve of the action potential and the conduction velocity. This was done for both the A and C peaks.
The data were then plotted as percent of control versus time. Other molar concentrations were administered from the dose where there was no effect on the A peak, and to a dose where the action potential was depressed to zero.
Inspection of the data allowed recording of the maximal observed effect for each of the concentrations studied. This observed maximum (or an asymptotic value derived from an appropriate equation) was used to generate log-probit linear regressions of the dose versus the effect. This is accomplished by conversion of the percent effect to the corresponding probit value, conversion of the dose to its log10 and fitting a first degree polynomial to the resultant data by the method of least squares.
The 95% confidence band was calculated and plotted for the data. From the equations of the best fit line and the confidence bands, doses estimated to produce 50, 90 and 95% depression of the four parameters were calculated for both the A and C peaks of the action potentials.
Table 1 was prepared using the results of each of the concentrations onsets (T 85%). […]

The conditions of data set [3]: acutely, 250 mg per ml of lithium; cited from earlier work.
[4] abbreviates: control (sodium Lockes) buffer vehicle.
[5] abbreviates: in the lithium-containing buffer vehicle.

pIC50: −log10 of the molar value. Read-outs that look alike come from different tables or passages of the source.

Consider `Cc1cccc(C)c1NC(=O)C1CCCCN1C` (stereo not shown) [mepivacaine], for which the “shift in the dose/response curves” value in data set [1] (lithium Lockes versus sodium Lockes, FIGS. 5 and 6) was “not parallel and demonstrated that the effect of lithium was most pronounced at lower concentrations”. The “in vivo ED50 reduction relative to standard sodium Lockes vehicle” value in data set [1] (lithium Lockes versus standard sodium Lockes vehicle) is listed as “reduced to one third of its value”. In addition, the ED50 in data set [1] (lithium present in the buffer vehicle) was found to be 0.69%; in data set [1] (without lithium (sodium Lockes)) it was 1.93%. For the same molecule, the pIC50 is 3.38 in data set [2] (setting [4]) and 3.57 in data set [2] (setting [5]). Further, the “shift in the dose/response curve” value in data set [2] was “not parallel and demonstrated that the effect of lithium was most pronounced at lower concentrations”. Further, the “in vitro ED50 reduction relative to control values” in data set [2] is “reduced to half their control values”.

For the molecule `[Li]` [lithium], in data set [3], the acute tolerability result was “well tolerated”.

As to `CCN(CC)CCOC(=O)c1ccc(N)cc1` [procaine], the pIC50 in data set [2] (setting [4]) is 3.27; in data set [2] (setting [5]), 3.72. Besides, the “shift in the dose/response curve” value in data set [2] is “not parallel and demonstrated that the effect of lithium was most pronounced at lower concentrations”. Further, in data set [2], the “in vitro ED50 reduction relative to control values” is reported as “reduced to half their control values”.

These data come from patent publication US5505922A, “Anesthetic pharmaceutical combination” (University of Maryland at Baltimore, priority 1995, dated 1996).
